Tested on: Zucker Diabetic Fatty (ZDF) rats
Test: Seven-week co-administration study of TZD 300512 and IP^7-GLP-1 (7–37)OH in diabetic rats (heart weight, blood glucose, insulin)
Assay type: in vivo, rat
Source text: This study was designed to evaluate the effects of using a combination of sub-optimal doses of a TZD and a GLP-1 agonist on glucose metabolism and in addition, if this combination therapy would prevent occurrence of heart hypertrophy that is associated with optimal doses of TZD derivatives. Eight week old Zucker Diabetic Fatty (Genetic Models, Inc.) rats (ZDF) weighing about 350 grams were used in this study. Animals were allowed free access to water, and Purina Formulab 5008 chow. TZD 300512 was administered as 0.00006% diet admixture while IP^7-GLP-1 (7–37)OH, a GLP-1 agonist, was infused subcutaneously at a constant rate of 0.06 ug/min via implant Aztet pumps. The duration of study was seven weeks, and food consumption and body weight were monitored daily. Plasma glucose and insulin levels were measured weekly, and Glycated hemoglobin A1c was measured at the end of the study. Heart weights also were measured at the end of the study.
Table 1 summarizes final rat weight, daily food intake, plasma glucose levels, plasma insulin levels, Hbalc, and heart weight. Values were rounded off to the nearest decimal point.

[1] = ZDF rats, TZD 0.00006% diet admixture, IP^7 0.06 ug/min subcutaneous infusion, seven weeks
[2] = ZDF rats, measured at the end of the seven-week study

Weight (final rat weight) [1]: 414.7 ± 7.9 g
Heart wt [2]: 1.2 ± 0.03 g
Substance: 4-imidazopropionyl-GLP-1 (7–37)OH [IP^7]
Glucose (plasma glucose level) (ZDF rats, fed state, TZD 0.00006% diet admixture, IP^7 0.06 ug/min subcutaneous infusion, seven weeks): 367.5 ± 58.0 mg/dL
Food Int (daily food intake) [1]: 30.4 ± 1.2 g/day
Insulin (plasma insulin level) [1]: 13.0 ± 2.9 ng/mL
Hbalc (glycated hemoglobin A1c) [2]: 9.5 ± 1.0%
Fed state plasma-glucose level as % of control levels (diabetic ZDF rats, 42-day treatment period): 57.5 % of control levels
Course of plasma glucose levels over the 42-day treatment period (diabetic rats, 42-day treatment): increased

From patent US7223728B2, “Synergistic use of thiazolidinediones with glucagon-like peptide-1 and agonists thereof to treat metabolic instability associated with non-insulin dependent diabetes” (Eli Lilly and Company, priority 1999, dated 2007)
